Data on eight molecules can be found in patent US12157755B2, “CD73 inhibitor, preparation method therefor and application thereof” (Abbisko Therapeutics Co., Ltd., priority 2019, dated 2024).

One experiment addresses T1, CD73 (Homo sapiens, UniProt P21589).
T1 construct: purchased R&D systems 5795-EN-010
T1 sequence (P21589 27-547 limits assumed): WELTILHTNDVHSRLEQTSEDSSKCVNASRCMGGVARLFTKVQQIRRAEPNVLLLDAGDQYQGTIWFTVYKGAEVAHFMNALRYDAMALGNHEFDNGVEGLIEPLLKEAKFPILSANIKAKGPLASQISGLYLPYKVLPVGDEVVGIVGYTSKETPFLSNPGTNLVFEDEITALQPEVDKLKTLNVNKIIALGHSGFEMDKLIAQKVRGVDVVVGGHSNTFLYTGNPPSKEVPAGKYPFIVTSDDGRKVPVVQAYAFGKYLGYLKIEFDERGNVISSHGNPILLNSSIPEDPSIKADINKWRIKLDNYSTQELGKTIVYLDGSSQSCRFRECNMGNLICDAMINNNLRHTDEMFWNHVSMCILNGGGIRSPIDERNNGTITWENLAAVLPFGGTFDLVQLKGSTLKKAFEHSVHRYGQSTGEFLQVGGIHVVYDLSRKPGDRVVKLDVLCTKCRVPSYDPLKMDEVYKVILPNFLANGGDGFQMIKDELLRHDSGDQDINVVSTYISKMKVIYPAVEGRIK
Description: In vitro enzymatic activity against CD73 (malachite green test using soluble CD73). The format is biochemical. To be noted: soluble CD73 36 ng/mL, 50 μM AMP, 30 minutes at 25° C. The method, boiled down: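 Soluble recombinant CD73 (36 ng/mL) incubated with compound and 50 μM AMP for 30 min at 25 °C in 25 mM Tris pH 7.5, 5 mM MgCl2, 0.005% Tween-20. Released inorganic phosphate read by malachite green; IC50 from non-linear regression of % inhibition.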

The target of experiment [1] is T2, CD73 enzymatic activity expressed on the cell surface of MDA-MB-231 cells (Homo sapiens, UniProt P21589).
T2 construct: Human breast cancer cells MDA-MB-231 that endogenously express CD73 were used; host or cells: MDA-MB-231
T2 sequence (P21589 27-549): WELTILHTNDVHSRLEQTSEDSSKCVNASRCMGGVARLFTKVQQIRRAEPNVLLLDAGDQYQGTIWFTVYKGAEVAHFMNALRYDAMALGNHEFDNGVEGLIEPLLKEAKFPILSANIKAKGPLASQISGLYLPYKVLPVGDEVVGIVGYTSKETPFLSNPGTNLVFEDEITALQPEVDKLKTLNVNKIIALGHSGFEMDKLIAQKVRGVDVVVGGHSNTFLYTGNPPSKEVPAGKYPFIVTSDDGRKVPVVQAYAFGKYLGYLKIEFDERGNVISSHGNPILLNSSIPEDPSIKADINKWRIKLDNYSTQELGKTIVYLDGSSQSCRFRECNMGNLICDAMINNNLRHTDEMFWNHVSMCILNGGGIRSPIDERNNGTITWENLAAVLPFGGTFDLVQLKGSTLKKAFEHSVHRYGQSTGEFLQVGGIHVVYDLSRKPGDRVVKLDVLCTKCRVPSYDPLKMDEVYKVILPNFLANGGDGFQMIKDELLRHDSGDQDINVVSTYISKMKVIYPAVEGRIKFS
Description: Inhibition of CD73 enzymatic activity on the cell surface (Cell Titer Glo (CTG) experiment), MDA-MB-231 cells. The format is cell-based. The settings on record: MDA-MB-231 cells endogenously expressing CD73, AMP, 37° C. for 2 hours, CTG readout; read-out: Cellular activity IC50. The method, boiled down: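 MDA-MB-231 cells with endogenous CD73 were washed serum-free, preincubated with compound for 15 min, then given AMP (1.2 mM stock) for 2 h at 37° C. Remaining AMP in the supernatant was read by CellTiter-Glo with added ATP. IC50 came from a four-parameter logistic fit.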

Structures are written as SMILES. Bounds are passed on as bounds.

Usually IC50 stands for the concentration that gives 50% inhibition. `O=P(O)(O)CP(=O)(O)OC[C@H]1C[C@@H](c2ccc3c(N[C@@H]4CCc5cc(F)c(F)cc54)nc(Cl)nn23)[C@H](O)[C@@H]1O` [Example 32, (((((1R,2R,3S,4S)-4-(2-chloro-4-(((R)-5,6-difluoro-2,3-dihydro-1H-inden-1-yl)amino)pyrrolo[2,1-f][1,2,4]triazin-7-yl)-2,3-dihydroxycyclopentyl)methoxy)(hydroxy)phosphoryl)methyl)phosphonic acid]: the IC50 was found to be 4.08 nM against CD73 and 0.27 nM in experiment [1].
Take `O=P(O)(O)CP(=O)(O)OC[C@H]1C[C@@H](c2ccc3c(N[C@H]4CCc5cc(F)cc(F)c54)nc(Cl)nn23)[C@H](O)[C@@H]1O` [Example 33, (((((1R,2R,3S,4S)-4-(2-chloro-4-(((S)-5,7-difluoro-2,3-dihydro-1H-inden-1-yl)amino)pyrrolo[2,1-f][1,2,4]triazin-7-yl)-2,3-dihydroxycyclopentyl)methoxy)(hydroxy)phosphoryl)methyl)phosphonic acid]: the IC50 at CD73 is 27.9 nM; in experiment [1], 2.4 nM.
On the same counts, the results for `O=P(O)(O)CP(=O)(O)OC[C@H]1C[C@@H](c2ccc3c(N[C@@H]4CCc5cc(F)cc(F)c54)nc(Cl)nn23)[C@H](O)[C@@H]1O` [Example 34, (((((1R,2R,3S,4S)-4-(2-chloro-4-(((R)-5,7-difluoro-2,3-dihydro-1H-inden-1-yl)amino)pyrrolo[2,1-f][1,2,4]triazin-7-yl)-2,3-dihydroxycyclopentyl)methoxy)(hydroxy)phosphoryl)methyl)phosphonic acid] are 1.01 nM and 0.22 nM.
In the same order, the values of `O=P(O)(O)CP(=O)(O)OC[C@H]1C[C@@H](c2ccc3c(N[C@H]4CCc5ccc(C(F)(F)F)cc54)nc(Cl)nn23)[C@H](O)[C@@H]1O` [Example 35, (((((1R,2R,3S,4S)-4-(2-chloro-4-(((S)-6-(trifluoromethyl)-2,3-dihydro-1H-inden-1-yl)amino)pyrrolo[2,1-f][1,2,4]triazin-7-yl)-2,3-dihydroxycyclopentyl)methoxy)(hydroxy)phosphoryl)methyl)phosphonic acid] are 354 nM and 5.73 nM.
On the same counts, the results for `O=P(O)(O)CP(=O)(O)OC[C@H]1C[C@@H](c2ccc3c(N[C@@H]4CCc5ccc(C(F)(F)F)cc54)nc(Cl)nn23)[C@H](O)[C@@H]1O` [Example 36, (((((1R,2R,3S,4S)-4-(2-chloro-4-(((R)-6-(trifluoromethyl)-2,3-dihydro-1H-inden-1-yl)amino)pyrrolo[2,1-f][1,2,4]triazin-7-yl)-2,3-dihydroxycyclopentyl)methoxy)(hydroxy)phosphoryl)methyl)phosphonic acid] are 21.7 nM and 0.63 nM.
As for `O=P(O)(O)CP(=O)(O)OC[C@H]1C[C@@H](c2ccc3c(N[C@H]4CCc5cc(Cl)ccc54)nc(Cl)nn23)[C@H](O)[C@@H]1O` [Example 37, (((((1R,2R,3S,4S)-4-(2-chloro-4-(((S)-5-chloro-2,3-dihydro-1H-inden-1-yl)amino)pyrrolo[2,1-f][1,2,4]triazin-7-yl)-2,3-dihydroxycyclopentyl)methoxy)(hydroxy)phosphoryl)methyl)phosphonic acid], the IC50 against CD73 is over 1000 nM; in experiment [1] it was 60 nM.
As for `O=P(O)(O)CP(=O)(O)OC[C@H]1C[C@@H](c2ccc3c(N[C@@H]4CCc5cc(Cl)ccc54)nc(Cl)nn23)[C@H](O)[C@@H]1O` [Example 38, (((((1R,2R,3S,4S)-4-(2-chloro-4-(((R)-5-chloro-2,3-dihydro-1H-inden-1-yl)amino)pyrrolo[2,1-f][1,2,4]triazin-7-yl)-2,3-dihydroxycyclopentyl)methoxy)(hydroxy)phosphoryl)methyl)phosphonic acid], the results for the IC50 (at CD73; in experiment [1]) were 7.8 nM and 0.266 nM, respectively.
On the same counts, the results for `O=P(O)(O)CP(=O)(O)OC[C@H]1C[C@@H](c2ccc3c(N[C@@H]4CCc5cc(C(F)(F)F)ccc54)nc(Cl)nn23)[C@H](O)[C@@H]1O` [Example 39, (((((1R,2R,3S,4S)-4-(2-chloro-4-(((R)-5-(trifluoromethyl)-2,3-dihydro-1H-inden-1-yl)amino)pyrrolo[2,1-f][1,2,4]triazin-7-yl)-2,3-dihydroxycyclopentyl)methoxy)(hydroxy)phosphoryl)methyl)phosphonic acid] are 63 nM and 0.743 nM.
